From patent US7468375B2 (Pfizer Inc., priority 2004, dated 2008)
Read-outs that look alike come from different tables or passages of the source.

Tests used:
[1] = system: RF strain of HIV-1 in CEM-SS cells; test: HIV-1 cell protection assay (XTT dye reduction); type: cell-based; conditions: Human immunodeficiency virus 1, CEM-SS, 144 h
Protocol: HIV-1 Cell Protection Assay
The antiviral activities of potential modulator compounds (test compounds) were determined in HIV-1 cell protection assays using the RF strain of HIV-1, CEM-SS cells, and the XTT dye reduction method (Weislow, O. S. et al., J. Natl. Cancer Inst. 81: 577-586 (1989)). Subject cells were infected with HIV-1 RF virus at an moi of 0.025 to 0.819 or mock infected with medium only and added at 2×10^4 cells per well into 96 well plates containing half-log dilutions of test compounds. Six days later, 50 μl of XTT solution (1 mg/ml XTT tetrazolium and […] phenazine methosulfate) were added to the wells and the plates were reincubated for four hours. Viability, as determined by the amount of XTT formazan produced, was quantified spectrophotometrically by absorbance at 450 nm. Data from CPE assays were expressed as the percent of formazan produced in compound-treated cells compared to formazan produced in wells of uninfected, compound-free cells. […] The therapeutic index was calculated by dividing the cytotoxicity (CC50) by the antiviral activity (EC50).

[2] = biological target: T1, Full-length wild type HIV-1 integrase (SF1) (Human immunodeficiency virus type 1 group M subtype B, UniProt P04585); test: Integrase strand-transfer scintillation proximity assay; type: biochemical; conditions: 50 min at 37° C., 246 nM integrase, 50 nM host DNA
T1 construct: made in house; host or cells: E. coli BL21 (DE3)
From the text: Integrase Strand-Transfer Scintillation Proximity Assay Oligonucleotides
Oligonucleotide #1-5′-(biotin)[…]-3′ (SEQ ID NO: 1) and oligonucleotide #2-5′-[…]-3′ (SEQ ID NO: 2), were synthesized by TriLink BioTechnologies, Inc. (San Diego, Calif.). The annealed product represents preprocessed viral ds-DNA derived from the LTR U5 sequence of the viral genome. A ds-DNA control to test for non-specific interactions was made using a 3′ di-deoxy derivative of oligonucleotide #1 annealed to oligonucleotide #2. The CA overhang at the 5′ end of the non-biotinylated strand of the ds-DNA was created artificially by using a complimentary DNA oligonucleotide shortened by 2 base pairs. This configuration eliminates the requisite 3′ processing step of the integrase enzyme prior to the strand-transfer mechanism. Host ds-DNA was prepared as an unlabeled and [^3H]-thymidine labeled product from annealed oligonucleotide #3-5-[…]-3′ (SEQ ID NO: 3), and oligonucleotide #4-5′-[…]-3′ (SEQ ID NO: 4), both synthesized by TriLink BioTechnologies, Inc. (San Diego, Calif.). The annealed product had overhanging 3′ ends of poly(dA). Host DNA was custom radiolabeled by PerkinElmer Life Sciences Inc. (Boston, Mass.) using an enzymatic method with a 12/1 ratio of [methyl-3H]dTTP/cold ds-DNA to yield 5′-blunt end ds-DNA with a specific activity of >900 Ci/mmol. The radiolabeled product was purified using a NENSORB cartridge and stored in stabilized aqueous solution (PerkinElmer). The final radiolabeled product had six [^3H]-thymidine nucleotides at both 5′ ends of the host ds-DNA. Reagents: Streptavidin-coated polyvinyltoluene (PVT) SPA beads were purchased from Amersham Biosciences (Piscataway, N.J.). Cesium chloride was purchased from Shelton Scientific, Inc. (Shelton, Conn.). White, polystyrene, flat-bottom, non-binding surface, 96-well plates were purchased from Corning. All other buffer components were purchased from Sigma (St. Louis, Mo.) unless otherwise indicated.
Enzyme Construction: Full-length wild type HIV-1 integrase (SF1) sequence (amino acids 1-288) was constructed in a pET24a vector (Novagen, Madison, Wis.). The construct was confirmed through DNA sequencing. Enzyme Purification: Full length wild-type HIV Integrase was expressed in E. coli BL21 (DE3) cells and induced with 1 mM isopropyl-1 thio-β-D-galactopyranoside (IPTG) when cells reached an optical density between 0.8-1.0 at 600 nm. Cells were lysed by microfluidation in 50 mM HEPES pH 7.0, 75 mM NaCl, 5 mM DTT, 1 mM 4-(2-Aminoethyl)benzenesulfonylfluoride HCl (AEBSF). Lysate was then centrifuged 20 minutes at 11 k rpm in GSA rotor in Sorvall RC-5B at 4° C. Supernant was discarded and pellet resuspended in 50 mM HEPES pH 7.0, 750 mM NaCl, 5 mM DTT, 1 mM AEBSF and homogenized in a 40 mL Dounce homogenizer for 20 minutes on ice. Homogenate was then centrifuged 20 minutes at 11 k rpm in SS34 rotor in Sorvall RC-5B at 4° C. Supernant was discarded and pellet resuspended in 50 mM HEPES pH 7.0, 750 mM NaCl, 25 mM CHAPS, 5 mM DTT, 1 mM AEBSF. Preparation was then centrifuged 20 minutes at 11 k rpm in SS34 rotor in Sorvall RC-5B at 4° C. Supernant was then diluted 1:1 with 50 mM HEPES pH 7.0, 25 mM CHAPS, 1 mM DTT, 1 mM AEBSF and loaded onto a Q-Sepharose column pre-equilibrated with 50 mM HEPES, pH 7.0, 375 mM NaCl, 25 mM CHAPS, 1 mM DTT, 1 mM AEBSF. The flow through peak was collected and NaCl diluted to 0.1 M with 50 mM HEPES pH 7.0, 25 mM CHAPS, 1 mM DTT, 0.5 mM AEBSF and loaded onto a SP-Sepharose column pre-equilibrated with 50 mM HEPES pH 7.0, 100 mM NaCl, 25 mM CHAPS, 1 mM DTT, 0.5 mM AEBSF. After washing the column with the equilibration buffer, a 100 to 400 mM NaCl gradient was run. The eluted integrase was concentrated and run on a S-300 gel diffusion column using 50 mM HEPES pH 7.0, 500 mM NaCl, 25 mM CHAPS, 1 mM DTT, 0.5 mM AEBSF. The peak from this column was concentrated to 0.76 mg/mL and stored at −70° C. and later used for strand transfer assays. […]

[3] = HIV-1 RF, CEM-SS cells, XTT dye reduction, six days, read-out: EC50
[4] = strand transfer, read-out: IC50

| SMILES | EC50 [1, 3] [nM] | IC50 ([2]; IC50, strand transfer) [nM] | IC50 [2, 4] [nM] | EC50 [1] [nM] |
| --- | --- | --- | --- | --- |
| CN1CCN(Cc2cn(Cc3ccc(F)cc3F)c3cnc(C(=O)N(C)O)cc23)CC1 [Example 13] | 220 | 695 | – | – |
| CN1CCN(Cc2cn(Cc3ccc(F)cc3)c3cnc(C(=O)N(C)O)cc23)CC1 [Example 14, 1-(4-Fluorobenzyl)-AN-hydroxy-N-methyl-3-[(4-methylpiperazin-1-yl)methyl]-1H-pyrrolo[2,3-c]pyridine-5-carboxamide] | 140 | 540 | – | – |
| O=C1CN(Cc2cn(Cc3ccc(F)cc3)c3cnc(C(=O)NO)cc23)CCN1 [Example 15, 1-(4-Fluorobenzyl)-N-hydroxy-3-[(3-oxopiperazin-1-yl)methyl]-1 pyrrolo[2,3-c]pyridine-5-carboxamide] | 11 | – | 41 | – |
| COCc1c(C(=O)NO)ncc2c1ccn2Cc1ccc(F)cc1F [Example 19, 1-(2,4-Difluorobenzyl)-N-hydroxy-4-(methoxymethyl)-1-H-pyrrolo[2,3-c]pyridine-5-carboxamide] | 48 | – | 218 | – |
| COCc1c(C(=O)NOC)ncc2c1ccn2Cc1ccc(F)cc1F [Example 20] | 82 | 1540 | – | – |
| O=C(NO)c1cc2ncn(Cc3ccc(F)cc3)c2cn1 [Example 21, 3-(4-Fluorobenzyl)-N-hydroxy-3H-imidazo[4,5-c]pyridine-6-carboxamide] | 84 | – | 517 | – |
| CONC(=O)c1cc2ncn(Cc3ccc(F)cc3)c2cn1 [Example 22, 3-(4-Fluorobenzyl)-N-methoxy-3H-imidazo[4,5-c]pyridine-6-carboxamide] | 190 | – | 1300 | – |
| CN(O)C(=O)c1cc2ncn(Cc3ccc(F)cc3)c2cn1 [Example 23, 3-(4-Fluorobenzyl)-N-hydroxy-N-methyl-3-H-imidazo[4,5-c]pyridine-6-carboxamide] | 780 | – | 1300 | – |
| O=C(NO)c1cc2ncn(Cc3cccc(F)c3F)c2cn1 [Example 24, 3-(2,3-Difluoro-benzyl)-N-hydroxy-3H-imidazo[4,5-c]pyridine-6-carboxamide] | 110 | – | 1040 | – |
| O=C(NO)c1cc2ncn(CCC3CCCCC3)c2cn1 [Example 25, 3-(2-Cyclohexylethyl)-N-hydroxy-3-H-imidazo[4,5-c]pyridine-6-carboxamide] | 230 | – | 1720 | – |
| O=C(NO)c1cc2ccn(CCC3CCCCC3)c2cn1 [Example 26, 1-(2-Cyclohexylethyl)-N-hydroxy-1H-pyrrolo[2,3-c]pyridine-5-carboxamide] | 3700 | – | 770 | – |
| CC(C)N(O)C(=O)c1cc2ccn(Cc3ccc(F)cc3)c2cn1 [Example 27, 1-(4-Fluorobenzyl)-N-hydroxy-N-isopropyl-1H-pyrrolo[2,3-c]pyridine-5-carboxamide] | 3500 | – | 8000 | – |
| CCCN(O)C(=O)c1cc2ccn(Cc3ccc(F)cc3)c2cn1 [Example 28, 1-(4-Fluorobenzyl)-N-hydroxy-N-propyl-1H-pyrrolo[2,3-c]pyridine-5-carboxamide] | 350 | – | 628 | – |
| CC(C)CN(O)C(=O)c1cc2ccn(Cc3ccc(F)cc3)c2cn1 [Example 29, 1-(4-Fluorobenzyl)-N-hydroxy-N-isobutyl-1H-pyrrolo[2,3-c]pyridine-5-carboxamide] | 1400 | – | 1700 | – |
| O=C(c1cc2ccn(Cc3ccc(F)cc3)c2cn1)N(O)CCCO [Example 30, 1-(4-Fluorobenzyl)-N-hydroxy-N-(3-hydroxypropyl)-1H-pyrrolo[2,3-c]pyridine-5-carboxamide] | 300 | – | 804 | – |
| O=C(NO)c1cc2c(cn1)c(C(O)c1ccc(F)cc1)cn2Cc1ccc(F)cc1 (stereo not shown) [Example 31, 1-(4-Fluorobenzyl)-3-[(4-fluorophenyl)(hydroxy)methyl]-N-hydroxy-1H pyrrolo[3,2-c]pyridine-6-carboxamide] | 14 | – | 186 | – |
| O=C(NO)c1cc2c(cn1)c(Cc1ccc(F)cc1)cn2Cc1ccc(F)cc1 [Example 32, 1,3-Bis(4-fluorobenzyl)-N-hydroxy-1H-pyrrolo[3,2-c]pyridine-6-carboxamide] | 25 | – | 215 | – |
| CC1C(=O)NCCN1Cc1cn(Cc2ccc(F)cc2)c2cnc(C(=O)N(C)O)cc12 (stereo not shown) [Example 33, 1-(4-Fluorobenzyl)-N-hydroxy-N-methyl-3-[(2-methyl-3-oxopiperazin-1-yl)methyl]-1H-pyrrolo[2,3-c]pyridine-5-carboxamide] | 210 | – | 463 | – |
| CN(O)C(=O)c1cc2c(CN3[C@H]4CC[C@@H]3C(=O)NC4)cn(Cc3ccc(F)cc3)c2cn1 [Example 34, (4-Fluorobenzyl)-N-hydroxy-N-methyl-3-{[(1R,5S)-2-oxo-3,8-diazabicyclo[3.2.1]oct-8-yl]methyl}-1H-pyrrolo[2,3-c]pyridine-5-carboxamide] | – | – | 490 | 170 |
| CN(O)C(=O)c1cc2cnn(Cc3ccc(F)cc3)c2cn1 [Example 36, 1-(4-Fluorobenzyl)-N-hydroxy-N-methyl-1H-pyrazolo[3,4-c]pyridine-5-carboxamide] | 390 | – | 811 | – |
| CONC(=O)c1cc2c(CN3CCN(C)CC3)cn(Cc3ccc(F)cc3F)c2cn1 [Example 37, 1-(2,4-Difluorobenzyl)-N-methoxy-3-[(4-methylpiperazin-1-yl)methyl]-1H-pyrrolo[2,3-c]pyridine-5-carboxamide] | 46 | – | 528 | – |
| CCO/C=C/c1c(C(=O)NO)ncc2c1ccn2Cc1ccc(F)cc1 [Example 38, 4-[(E)-2-Ethoxyvinyl]-1-(4-fluorobenzyl)-N-hydroxy-1H-pyrrolo[2,3-c]pyridine-5-carboxamide] | 12 | – | 145 | – |
| O=C(NO)c1ncc2c(ccn2Cc2ccc(F)cc2)c1O [Example 42, 1-(4-Fluorobenzyl)-N,4-dihydroxy-1H-pyrrolo[2,3-c]pyridine-5-carboxamide] | 1 | – | 27 | – |
